No end group written: not given here.
Tests used:
human GIP receptor = target: T1, human GIP receptor (Homo sapiens, UniProt P48546); experiment: GIP-stimulated cyclic AMP generation in GIP receptor transfected CHL cells (antagonism); assay type: cell-based; details: in the presence of native GIP (10^-7 M)
T1 construct: expressed in transfected cells; host or cells: Chinese hamster lung (CHL) fibroblasts, stably transfected
T1 sequence (P48546 22-466): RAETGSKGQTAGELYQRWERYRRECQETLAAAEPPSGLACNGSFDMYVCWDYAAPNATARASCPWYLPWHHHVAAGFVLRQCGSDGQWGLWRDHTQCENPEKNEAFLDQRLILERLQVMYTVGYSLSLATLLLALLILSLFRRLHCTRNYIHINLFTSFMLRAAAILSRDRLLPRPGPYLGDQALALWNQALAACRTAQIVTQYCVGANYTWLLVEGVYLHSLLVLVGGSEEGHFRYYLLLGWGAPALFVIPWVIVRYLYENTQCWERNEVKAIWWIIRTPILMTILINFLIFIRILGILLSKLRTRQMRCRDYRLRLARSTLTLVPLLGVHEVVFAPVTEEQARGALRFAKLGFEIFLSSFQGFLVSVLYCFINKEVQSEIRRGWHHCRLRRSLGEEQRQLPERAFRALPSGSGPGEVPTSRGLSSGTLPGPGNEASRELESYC
Procedure: Tissue culture. Chinese hamster lung (CHL) fibroblast cells stably transfected with the human GIP receptor were cultured in DMEM tissue culture medium containing 10% (v/v) foetal bovine serum, 1% (v/v) antibiotics (100 U/ml penicillin, 0.1 mg/ml streptomycin). BRIN-BD11 cells were cultured using RPMI-1640 tissue culture medium containing 10% (v/v) foetal bovine serum, 1% (v/v) antibiotics (100 U/ml penicillin, 0.1 mg/ml streptomycin). Cells were maintained in sterile tissue culture flasks (Corning Glass Works, Sunderland, UK) at 37° C. in an atmosphere of 5% CO2 and 95% air using an LEEC incubator (Laboratory Technical Engineering, Nottingham, UK).
Acute studies of cyclic AMP generation. GIP receptor transfected CHL cells were seeded into 12-well plates (Nunc, Roskilde, Denmark) at a density of 1.0×10^5 cells per well. The cells were then allowed to grow for 48 hours before being loaded with tritiated adenine (2 μCi; TRK311, Amersham, Buckinghamshire, UK) and incubated at 37° C. for 6 hours in 1 ml DMEM, supplemented with 0.5% (w/v) […]. The cells were then washed twice with HBS buffer (130 mM NaCl, 20 mM HEPES, 0.9 mM NaHPO4, 0.8 mM MgSO4, 5.4 mM KCl, 1.8 mM CaCl2, 25 mM glucose, 25 μM phenol red, pH 7.4). […]

[1] = test system: obese diabetic ob/ob mice; experiment: Acute in vivo effects of (Pro3)GIP in obese diabetic ob/ob mice; parameters: species or system mouse
Procedure: Acute in vivo effects of (Pro^3)GIP administration in obese diabetic ob/ob mice. Plasma glucose and insulin responses were evaluated using 8- to 12-week old obese diabetic ob/ob mice following intraperitoneal (i.p.) injection of native GIP, (Pro^3)GIP (25 nmol/kg body weight) or saline (0.9% (w/v) NaCl; control) immediately following the combined injection of GIP (25 nmol/kg body weight) with glucose (18 mmol/kg body weight). All test solutions were administered in a final volume of 8 ml/kg body weight. Blood samples were collected from the cut tip of the tail of conscious mice into chilled fluoride/heparin microcentrifuge tubes (Sarstedt, Numbrecht, Germany) immediately prior to injection and at 15, 30 and 60 minutes post injection. Blood samples were immediately centrifuged using a Beckman microcentrifuge (Beckman Instruments, UK) for 30 seconds at 13000 g and stored at −20° prior to glucose and insulin determinations.
Acute in vivo effects of (Pro^3)GIP on plasma glucose and insulin responses to feeding in obese diabetic ob/ob mice. Plasma glucose and insulin responses were evaluated using 8- to 12-week old ob/ob mice where food was withdrawn for an 18-hour period prior to intraperitoneal injection of saline (0.9% (w/v) NaCl; control) or (Pro^3)GIP (25 nmol/kg body weight). Following injection, the mice were allowed to re-feed for 15 minutes. Blood samples were collected from the cut tip of the tail of conscious mice into chilled fluoride/heparin microcentrifuge tubes (Sarstedt, Numbrecht, Germany) immediately prior to injection and at 15, 30, 60 and 120 minutes post injection. Blood samples were immediately centrifuged using a Beckman microcentrifuge (Beckman Instruments, UK) for 30 seconds at 13000 g and stored at −20° prior to glucose and insulin determinations.
Determination of HbA1c, plasma glucose and insulin concentrations. HbA1c was measured in whole blood by ion-exchange high-performance liquid chromatography using the Menari HA-8140 kit (BIOMEN, Berkshire, UK). Plasma glucose was assayed by an automated glucose oxidase procedure using a Beckman Glucose Analyzer II (Stevens, J. F., 1971, Clinica Chemica Acta 32:199-201) and plasma insulin was determined by RIA (Flatt, P. R. et al., 1981, Diabetologia 20:573-577). Incremental areas under plasma glucose and insulin curves (AUC) were calculated using a computer generated program (CAREA) employing the trapezoidal rule (Burington, R. S., 1973, Handbook of Mathematical Tables and Formulae, New York, McGraw Hill) with baseline subtraction.

[2] = 25 nmol/kg i.p., 15 min re-feeding after 18 h fast

Sequence: YAPGTFISDYSIAMDKIHQQDFVNWLLAQKGKKNDWKHNITQ [(Pro^3)GIP]
- inhibition of GIP-stimulated cyclic AMP production (human GIP receptor): inhibited in dose-dependent fashion
- antagonism of insulin-releasing action of GIP and improvement of glucose tolerance ([1]; 25 nmol/kg i.p. with GIP 25 nmol/kg and glucose 18 mmol/kg): completely antagonised
- glycemic excursion compared with glucose alone ([1]; 25 nmol/kg i.p. with GIP and glucose): worse than when glucose was administered alone
- glycemic excursion after feeding [1, 2]: worsened
- insulin response to feeding [1, 2]: decreased
